Structures are written as SMILES. Bounds are passed on as bounds.

Consider 13 molecules from patent EP1181269B1, “CELL PROLIFERATION INHIBITORS” (ABBOTT LABORATORIES, priority 1999, dated 2000).

Assay [1] concerns human lung large cell carcinoma, MDR negative (NCI-H460) cells. Put plainly: 48-hour cellular proliferation assay (sulforhodamine staining, 96-well microtitre format). Particulars: 10^-4M compound, 48 hours in culture, 0% = DMSO control, 100% = trichloroacetic acid-treated well; for inhibition at 100 µM: Homo sapiens, read-out: NCI-460 % inhibition at 10^-4M. Type of assay: cell-based. How it is done: (§1) Compounds of this invention were tested in a 48-hour cellular proliferation assay which uses human colon adenocarcinoma, MDR positive (HCT-15) cells, and human lung large cell carcinoma, MDR negative (NCI-H460) cells, in the 96-well microtitre format described in Skehan P., et al. New Colorimetric Cytotoxicity Assay for Anticancer Drug Screening. 1990, J. Natl. Cancer Inst. 82:1107-1112. Briefly, the wells of a microtitre plate were charged sequentially with cultured cells and compounds of the invention (1.0 x 10^-4 to 1.0 x 10^-11 M in 10% DMSO prepared by dissolving compounds of the invention in DMSO and adding 11 µL of the DMSO solution to 100 µL of culture medium for a final DMSO concentration of 10%). Two of the following controls were also present in each microtitre plate: a solvent (DMSO) control without drug that yielded a 0% inhibition level and a trichloroacetic acid-treated well that yielded a 100% inhibition level. The cells were grown in culture (37 °C, 5% CO2 atmosphere) for 48 hours then fixed by the addition of trichloroacetic acid. The wells were stained with sulforhodamine, washed with 1% acetic acid, and treated with 0.01 M tris buffer (100 µL) to solubilize the adherent dye. The absorbance of the dye solution was measured with a Molecular Devices SpechaMax340 plate reader. The percent inhibition values were obtained by calculating the proportional response of the experimental values to the absorbance values of the controls.

Assay [2] has as its system human colon adenocarcinoma, MDR positive (HCT-15) cells. The description is as above. The format is cell-based. Particulars: 48 hours in culture, 0% = DMSO control, 100% = trichloroacetic acid-treated well; for inhibition at 100 µM: Homo sapiens, HCT-15, 10^-4M compound. On the procedure: as §1

`COc1cc(S(=O)(=O)Oc2ccc3[nH]ccc3c2)cc(OC)c1OC` [Example 15, 1H-indol-5-ol,(3,4,5-trimethoxybenzenesulfonate) ester]: in assay [1], the “NCI-460 % inhibition at 10^-4M” value is given as 100.0%. In addition, the “HCT-15 % inhibition at 10^-4M” value in assay [2] (10^-4M compound) was determined as 100.0%.
One may read the inhibition as the percentage by which the read-out fell short of the control. For `COc1cc(N(C)S(=O)(=O)c2ccc3c(ccn3C)c2)cc(OC)c1OC` [Example 11, N,1-dimethyl-N-(3,4,5-trimethoxyphenyl)-1H-indole-5-sulfonamide], the inhibition at 100 µM in assay [1] worked out at 99.9%; in assay [2], 100%.
As for `COc1cc(NS(=O)(=O)c2cn(C)c3ccc(N)cc23)cc(OC)c1OC` [Example 7, 5-amino-1-methyl-N-(3,4,5-trimethoxyphenyl)-1H-indole-3-sulfonamide], the inhibition at 100 µM in assay [1] was 87%; in assay [2], 91.9%.
As to `COc1cc(NS(=O)(=O)c2cn(C)c3ccc([N+](=O)[O-])cc23)cc(OC)c1OC` [Example 6, 1-methyl-5-nitro-N-(3,4,5-trimethoxyphenyl)-1H-indole-3-sulfonamide], the inhibition at 100 µM in assay [1] amounted to 45.5%; in assay [2] it was 50.6%.
As for `COc1cc(NS(=O)(=O)c2ccc3c(ccn3C)c2)cc(OC)c1OC` [Example 10, 1-methyl-N-(3,4,5-trimethoxyphenyl)-1H-indole-5-sulfonamide], the inhibition at 100 µM in assay [1] and in assay [2] was 100% each time.
As for `COc1ccc(S(=O)(=O)Nc2cc(OC)c(OC)c(OC)c2)cc1` [Example 1, 4-methoxy-N-(3,4,5-trimethoxyphenyl)benzenesulfonamide], the inhibition at 100 µM in assay [1] was determined as 98.5%; in assay [2], 99.4%.
In the same order, the values of `COc1cc(NS(=O)(=O)c2ccc3c(c2)CCN3C)cc(OC)c1OC` [Example 5, 1-methyl-N-(3,4,5-trimethoxyphenyl)indoline-5-sulfonamide] are 96.1% and 97.6%.
On to `COc1cc(NS(=O)(=O)c2ccc3c(c2)CCN3C=O)cc(OC)c1OC` [Example 2, 1-formyl-N-(3,4,5-trimethoxyphenyl)indoline-5-sulfonamide], for which the inhibition at 100 µM turned out to be 74% in assay [1] and 79.9% in assay [2].
Turning to `COc1cc(NS(=O)(=O)c2ccc3c(c2)CCN3)cc(OC)c1OC` [Example 3, N-(3,4,5-trimethoxyphenyl)indoline-5-sulfonamide], the values for the inhibition at 100 µM in assay [1] and in assay [2] were 59.3% and 86.2%, respectively.
With `COc1cc(NS(=O)(=O)c2c[nH]c3ccc(N)cc23)cc(OC)c1OC` [Example 8, 5-amino-N-(3,4,5-trimethoxyphenyl)-1H-indole-3-sulfonamide], the values for the inhibition at 100 µM in assay [1] and in assay [2] were less than 9.1% and 37%, respectively.
For `COc1cc(S(=O)(=O)Oc2ccc3c(ccn3C)c2)cc(OC)c1OC` [Example 16, 1-methyl-1H-indol-5-yl 3,4,5-trimethoxybenzenesulfonate] the same measures were 100% and 100%.
For the molecule `COc1cc(NS(=O)(=O)c2ccc3[nH]ccc3c2)cc(OC)c1OC` [Example 9, N-(3,4,5-trimethoxyphenyl)-1H-indole-5-sulfonamide], the inhibition at 100 µM in assay [1] is 89.1%; in assay [2], 94.1%.
On to `COc1cc(NS(=O)(=O)c2c[nH]c3ccc([N+](=O)[O-])cc23)cc(OC)c1OC` [Example 4, 5-nitro-N-(3,4,5-trimethoxyphenyl)-1H-indole-3-sulfonamide], for which the inhibition at 100 µM came to 41.7% in assay [1] and 15.9% in assay [2].
